Literature values in patent US11465999B2, “Process for preparing Alectinib or a pharmaceutically acceptable salt thereof” (FRESENIUS KABI ONCOLOGY LIMITED, priority 2017, dated 2022).
Counter-ions that a name gives are not always drawn.

Assays:
[1] = high humidity: absorbs moisture to form a tetrahydrate; low humidity: dehydrates to anhydrate; drying
[2] = in water across the whole pH range and in different solvents

## CCc1cc2c(cc1N1CCC(N3CCOCC3)CC1)C(C)(C)c1[nH]c3cc(C#N)ccc3c1C2=O.Cl [type III]
[1]
  stability of crystalline form: converts to type II on drying

## CCc1cc2c(cc1N1CCC(N3CCOCC3)CC1)C(C)(C)c1[nH]c3cc(C#N)ccc3c1C2=O [Alectinib hydrochloride]
[2]
  solubility: insoluble

## CCc1cc2c(cc1N1CCC(N3CCOCC3)CC1)C(C)(C)c1[nH]c3cc(C#N)ccc3c1C2=O.Cl [type II]
[1]
  stability of crystalline form: not stable
